# Assay results reported in ChEMBL document CHEMBL3124911, “Chikungunya virus: emerging targets and new opportunities for medicinal chemistry” (J Med Chem, 2014).
# Assays:
# [1] = Selectivity index, ratio of CC50 for African green monkey Vero cells to EC50 for Chikungunya virus; assay type: toxicity, cell-based; conditions: read-out: Ratio CC50/EC50
# Chikungunya virus [2] = assay: Antiviral activity against Chikungunya virus infected in African green monkey Vero cells assessed as inhibition of virus-induced cytopathic effect; assay type: functional, cell-based
# Chikungunya virus [3] = assay: Antiviral activity against Chikungunya virus; assay type: functional
# Chikungunya virus [4] = assay: Antiviral activity against Chikungunya virus by cell-based assay; assay type: functional
# [5] = Inhibition of Chikungunya virus IMPDH
# Chikungunya virus [6] = assay: Antiviral activity against Chikungunya virus infected in BHK21 cells assessed as inhibition of viral replication after 24 hrs; assay type: functional, cell-based; conditions: BHK-21, 24 h
smiles,measurement,setting,value
CCOc1ccc(/C=N/NC(=O)/C=C/c2ccc(C(C)(C)C)cc2)cc1OCC,selectivity ratio,[1],32
same,EC50,Chikungunya virus [2],3.2 µM
C=C[C@H]1CN2CC[C@H]1C[C@H]2[C@H](O)c1ccnc2ccc(OC)cc12 [QUININE],IC50,Chikungunya virus [3],0.1 µg/mL
CCOC(=O)c1c(CSc2ccccc2)n(C)c2cc(Br)c(O)c(CN(C)C)c12 [UMIFENOVIR],IC50,Chikungunya virus [4],12.2 µM
COc1c(C)c2c(c(O)c1C/C=C(\C)CCC(=O)O)C(=O)OC2 [MYCOPHENOLIC ACID],IC50,[5],200 nM
CCOC(=O)c1c(C[S+]([O-])c2ccccc2)n(C)c2cc(Br)c(O)c(CN(C)C)c12 (stereo unspecified),IC50,Chikungunya virus [4],54.5 µM
O=c1cnn([C@@H]2O[C@H](CO)[C@@H](O)[C@H]2O)c(=O)[nH]1 [6-AZAURIDINE],EC50,Chikungunya virus [3],0.2 µg/mL
NC(=O)c1ncn([C@@H]2O[C@H](CO)[C@@H](O)[C@H]2O)n1 [RIBAVIRIN],EC50,Chikungunya virus [3],83.3 µg/mL
CCOc1ccc(/C=N/NC(=O)C2CC2c2ccc(C(C)(C)C)cc2)cc1OCC (stereo unspecified),selectivity ratio,[1],14
same,EC50,Chikungunya virus [2],5 µM
COC(=O)C[C@](O)(CCC(C)(C)O)C(=O)O[C@@H]1C(OC)=C[C@]23CCCN2CCc2cc4c(cc2[C@H]13)OCO4 [HARRINGTONINE],EC50,Chikungunya virus [6],240 nM
C=C(C)[C@@]1(O)[C@@H]2OC3(c4ccccc4)O[C@H]1[C@@H](C)[C@]1(O3)C3=CC(=C(Cl)Cl)[C@H](OC(=O)c4ccccc4)[C@@]3(O)[C@H](OC(C)=O)[C@@]3(COC(C)=O)O[C@H]3[C@@H]21,EC50,Chikungunya virus [3],1500 nM
CC1(C)CC[C@]2(C)CC[C@]3(C)C(=CC[C@@H]4[C@@]5(C)CCC(=O)C(C)(C)[C@@H]5CC[C@]43C)[C@@H]2C1,EC50,Chikungunya virus [4],86 µM
C=C(C)[C@@H]1CC[C@]2(C)CC[C@]3(C)[C@H](CC[C@@H]4[C@@]5(C)CCC(=O)C(C)(C)[C@@H]5CC[C@]43C)[C@@H]12 [LUPENONE],EC50,Chikungunya virus [4],77 µM
CCN(CC)CCCC(C)Nc1ccnc2cc(Cl)ccc12 (stereo unspecified) [CHLOROQUINE],IC50,Chikungunya virus [3],1.1 µg/mL
CCOC(=O)c1c(CS(=O)(=O)c2ccccc2)n(C)c2cc(Br)c(O)c(CN(C)C)c12,IC50,Chikungunya virus [4],56.4 µM
